Data as given in patent US11529367B2, “Radiation damage protective agent” (MiZ Company Limited, priority 2016, dated 2022).

Tested on: cancer patients subjected to IMRT irradiation (bone marrow damage by radiation)
Conditions: mean±SE, n=16, before treatment taken as 1
Method: These patients were subjected to IMRT irradiation integrated with a computed tomograph (CT). Irradiation was in principle performed on a schedule of once a day, five times per week, and this schedule was repeated. Radiation was applied at 1 to 5 locations for 5 to 20 minutes once, and the number of times irradiation was performed was 5 to 20.
These patients were housed in a hyperbaric capsule (APF 2, 700×1900 mm; oxygen concentration: 28% by volume; Air Press Co., Ltd.) at 1.35 atm for 30 minutes after each irradiation with radiation to alleviate the adverse effects.
In addition, 16 patients (8 males and 8 females) who had visited from April 2016 until November 2016 were included in the hydrogen group. These patients were housed in the capsule similar to the above-mentioned capsule except that a hydrogen gas inhaler (MHG-44280, MiZ Company Limited), which generates approximately 6.5% by volume of hydrogen gas (4 L/min) by electrolysis of water, was connected in series with and upstream the air intake of the pressurizing device for the hyperbaric capsule provided outside the capsule, so as to feed high-pressure air containing hydrogen gas into the capsule, while the patients were allowed to inhale, via the nasal cannula, for 30 minutes, 4% by volume to 6% by volume of hydrogen gas (4 L/min) carried through a Y-shaped tube by which the air outlets of two hydrogen gas inhalers (MHG-2070 and MHG-2140, MiZ Company Limited) provided in the capsule were connected in parallel. The hydrogen gas concentration in the ceiling portion of the capsule was approximately 0.2% by volume.
Blood samples were taken periodically from both groups of patients before, during and after radiation treatment. The analysis items of blood were the white blood cell count (WBC), red blood cell count (RBC), hemoglobin level (Hb), hematocrit level (Ht) and platelet count (PLT), and these were used as indicators for hematopoietic function.

[1] = 4-6% by volume hydrogen gas inhaled 30 min in hyperbaric capsule at 1.35 atm, no significant difference vs control

## [HH] [H2, hydrogen gas]
4-6% by volume hydrogen gas inhaled 30 min in hyperbaric capsule at 1.35 atm after each irradiation, p<0.01 vs control
  WBC ratio: relative value of the white blood cell count (WBC) immediately after radiation treatment to the WBC before radiation treatment: 0.612±0.088
[1]
  Hb ratio: relative value of the hemoglobin level (Hb) immediately after radiation treatment to the Hb before radiation treatment: 0.966±0.029
  Ht ratio: relative value of the hematocrit level (Ht) immediately after radiation treatment to the Ht before radiation treatment: 0.953±0.027
  RBC ratio: relative value of the red blood cell count (RBC) immediately after radiation treatment to the RBC before radiation treatment: 0.985±0.027
4-6% by volume hydrogen gas inhaled 30 min in hyperbaric capsule at 1.35 atm, p<0.05 vs control
  PLT ratio: relative value of the platelet count (PLT) immediately after radiation treatment to the PLT before radiation treatment: 0.752±0.130
